This is an account of results in US9018208B2, “Heterocycles as potassium channel modulators” (Icagen Inc., priority 2007, dated 2015).

The structures appear in SMILES notation. Some results are limits rather than exact numbers.

This test relates to SH-SY5Y M-currents (KCNQ2, KCNQ3 and KCNQ5). Nature of the test: SH-SY5Y native cell line FLIPR assay (voltage-sensitive dye DiBAC). The test is classed as cell-based, mouse neuroblastoma, rat glioma hybrid cell line. As to conditions: FLIPR assay, SH-SY5Y native cell line; Table 2; read-out: SH-SY5Y EC50. A digest of the protocol: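 Response is peak DiBAC fluorescence change, normalised to the maximum from a positive control agent, sampled every 30 s over 25 min. Before compound addition, SH-SY5Y cells differentiated with PGE1 plus isomethylbutylxanthine were dye-loaded for 1 h in EBSS with […] DiBAC.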
For the compound `CC(C)(C#N)CC(=O)Nc1nc2ccc(F)cn2c1-c1ccc(OC(F)(F)F)cc1` [Compound 218, 3-cyano-N-(6-fluoro-3-(4-(trifluoromethoxy)phenyl)imidazo[1,2-a]pyridin-2-yl)-3-methylbutanamide], the EC50 lay within 0.5 to 3 µM.

With `CC(CC(=O)Nc1nc2cc(Cl)c(Cl)cn2c1-c1ccc(OC(F)(F)F)cc1)C(F)(F)F` (stereo not drawn) [Compound 219], the EC50 fell in the range of 0.5 to 3 µM.

Consider `O=C(CCC1CCCC1)Nc1nc2ccc(F)cn2c1-c1ccc(C(F)(F)F)cc1` [Compound 220, 3-cyclopentyl-N-(6-fluoro-3-(4-(trifluoromethyl)phenyl)imidazo[1,2-a]pyridin-2-yl)propanamide], for which the EC50 is less than 0.5 µM.

In the case of `CC(C)(C)CC(=O)Nc1nc2ccccn2c1-c1ccc(F)cc1` [Compound 221, N-(3(4-fluorophenyl)imidazo[1,2-a]pyridin-2-yl)-3,3-dimethylbutanamide], the EC50 fell in the range of 0.5 to 3 µM.

Turning to `O=C(CC1CCCC1)Nc1nc2ccccn2c1-c1ccc(F)cc1` [Compound 222, 2-cyclopentyl-N-(3-(4-fluorophenyl)imidazo[1,2-a]pyridin-2-yl)acetamide], the EC50 lay within 0.5 to 3 µM.

On to `CC(C)(C)CC(=O)Nc1nc2ccccn2c1-c1ccc(C(F)(F)F)cc1` [Compound 223, 3,3-dimethyl-N-(3-(4-(trifluoromethyl)phenyl)imidazo[1,2-a]pyridin-2-yl)butanamide], for which the EC50 is less than 0.5 µM.

In the case of `O=C(CC1CCCC1)Nc1nc2ccccn2c1-c1ccc(C(F)(F)F)cc1` [Compound 224, 2-cyclopentyl-N-(3-(4-(trifluoromethyl)phenyl)imidazo[1,2-a]pyridin-2-yl)acetamide], the EC50 was less than 0.5 µM.

On to `O=C(CC1CCCC1)Nc1nc2ccccn2c1-c1ccc(OC(F)(F)F)cc1` [Compound 226, 2-cyclopentyl-N-(3-(4-(trifluoromethoxy)phenyl)imidazo[1,2-a]pyridin-2-yl)acetamide], for which the EC50 is less than 0.5 µM.

`CC(C)(C)CC(=O)Nc1nc2ccc(F)cn2c1-c1cc(F)cc(F)c1` [Compound 227, N-(3-(3,5-difluorophenyl)-6-fluoroimidazo[1,2-a]pyridin-2-yl)-3,3-dimethylbutanamide]: the EC50 was less than 0.5 µM.

As to `O=C(Cc1ccccc1)Nc1nc2ccc(F)cn2c1-c1cc(F)cc(F)c1` [Compound 228, N-(3-(3,5-difluorophenyl)-6-fluoroimidazo[1,2-a]pyridin-2-yl)-2-phenylacetamide], the EC50 was less than 0.5 µM.

For `O=C(Cc1ccc(F)cc1)Nc1nc2ccc(F)cn2c1-c1cc(F)cc(F)c1` [Compound 229, N-(3-(3,5-difluorophenyl)-6-fluoroimidazo[1,2-a]pyridin-2-yl)-2-(4-fluorophenyl)acetamide], the EC50 is less than 0.5 µM.

Regarding `CC(CC(=O)Nc1nc2ccc(F)cn2c1-c1cc(F)cc(F)c1)C(F)(F)F` (stereo not drawn) [Compound 230, N-(3-(3,5-difluorophenyl)-6-fluoroimidazo[1,2-a]pyridin-2-yl)-4,4,4-trifluoro-3-methylbutanamide], the EC50 was in the range of 0.5 to 3 µM.

In the case of `O=C(COc1ccccc1)Nc1nc2ccc(F)cn2c1-c1ccc(OC(F)(F)F)cc1` [Compound 231, N-(6-fluoro-3-(4-(trifluoromethoxy)phenyl)imidazo[1,2-a]pyridin-2-yl)-2-phenoxyacetamide], the EC50 is 3 to 10 µM.

In the case of `CC(Oc1ccccc1)C(=O)Nc1nc2ccc(F)cn2c1-c1ccc(OC(F)(F)F)cc1` (stereo not drawn) [Compound 232, N-(6-fluoro-3-(4-(trifluoromethoxy)phenyl)imidazo[1,2-a]pyridin-2-yl)-2-phenoxypropanamide], the EC50 lay within 3 to 10 µM.

`CC(C)(C)CC(=O)Nc1nc2cc(Cl)c(Cl)cn2c1-c1ccc(C(F)(F)F)cc1` [Compound 233, N-(6,7-dichloro-3-(4-(trifluoromethyl)phenyl)imidazo[1,2-a]pyridin-2-yl)-3,3-dimethylbutanamide]: the EC50 is less than 0.5 µM.

Turning to `CC(C(=O)Nc1nc2ccc(F)cn2c1-c1ccc(C(F)(F)F)cc1)C(C)(C)C` (stereo not drawn) [Compound 234, N-(6-fluoro-3-(4-(trifluoromethyl)phenyl)imidazo[1,2-a]pyridin-2-yl)-2,3,3-trimethylbutanamide], the EC50 was less than 0.5 µM.

For `CC(C(=O)Nc1nc2ccc(F)cn2c1-c1ccc(OC(F)(F)F)cc1)C(C)(C)C` (stereo not drawn) [Compound 235, N-(6-fluoro-3-(4-(trifluoromethoxy)phenyl)imidazo[1,2-a]pyridin-2-yl)-2,3,3-trimethylbutanamide], the EC50 is less than 0.5 µM.

Turning to `O=C(Cc1ccc(F)cc1)Nc1nc2cc(Cl)c(Cl)cn2c1-c1ccc(C(F)(F)F)cc1` [Compound 236, N-(6,7-dichloro-3-(4-(trifluoromethyl)phenyl)imidazo[1,2-a]pyridin-2-yl)-2-(4-fluorophenyl)acetamide], the EC50 was less than 0.5 µM.

Take `O=C(COCc1ccccc1)Nc1nc2ccc(F)cn2c1-c1ccc(OC(F)(F)F)cc1` [Compound 237, 2-(benzyloxy)-N-(6-fluoro-3-(4-(trifluoromethoxy)phenyl)imidazo[1,2-a]pyridin-2-yl)acetamide]: the EC50 was in the range of 3 to 10 µM.

Regarding `O=C(Cc1ccc(Cl)cc1)Nc1nc2ccc(F)cn2c1-c1ccc(OC(F)(F)F)cc1` [Compound 238, 2-(4-chlorophenyl)-N-(6-fluoro-3-(4-(trifluoromethoxy)phenyl)imidazo[1,2-a]pyridin-2-yl)acetamide], the EC50 was less than 0.5 µM.

With `O=C(Cc1cccc(F)c1)Nc1nc2ccc(F)cn2c1-c1ccc(OC(F)(F)F)cc1` [Compound 240, N-(6-fluoro-3-(4-(trifluoromethoxy)phenyl)imidazo[1,2-a]pyridin-2-yl)-2-(3-fluorophenyl)acetamide], the EC50 was less than 0.5 µM.

Consider `O=C(Cc1ccc(F)c(F)c1)Nc1nc2ccc(F)cn2c1-c1ccc(OC(F)(F)F)cc1` [Compound 241, 2-(3,4-difluorophenyl)-N-(6-fluoro-3-(4-(trifluoromethoxy)phenyl)imidazo[1,2-a]pyridin-2-yl)acetamide], for which the EC50 is less than 0.5 µM.

Turning to `O=C(Cc1cc(F)cc(F)c1)Nc1nc2ccc(F)cn2c1-c1ccc(OC(F)(F)F)cc1` [Compound 242, 2-(3,5-difluorophenyl)-N-(6-fluoro-3-(4-(trifluoromethoxy)phenyl)imidazo[1,2-a]pyridin-2-yl)acetamide], the EC50 is less than 0.5 µM.

Regarding `O=C(Nc1nc2ccc(F)cn2c1-c1ccc(OC(F)(F)F)cc1)[C@H]1CCCO1` [Compound 243, (R)—N-(6-fluoro-3-(4-(trifluoromethoxy)phenyl)imidazo[1,2-a]pyridin-2-yl)tetrahydrofuran-2-carboxamide], the concentration for a half-maximal effect (EC50) fell in the range of 3 to 10 µM.

For `O=C(Nc1nc2ccc(F)cn2c1-c1ccc(OC(F)(F)F)cc1)[C@@H]1CCCO1` [Compound 244, (S)—N-(6-fluoro-3-(4-(trifluoromethoxy)phenyl)imidazo[1,2-a]pyridin-2-yl)tetrahydrofuran-2-carboxamide], the EC50 is 3 to 10 µM.

As for `COc1ccn2c(-c3ccc(C(F)(F)F)cc3)c(NC(=O)CC(C)(C)C)nc2c1` [Compound 245, N-(7-methoxy-3-(4-(trifluoromethyl)phenyl)imidazo[1,2-a]pyridin-2-yl)-3,3-dimethylbutanamide], the EC50 fell in the range of 0.5 to 3 µM.

As for `COc1ccn2c(-c3ccc(C(F)(F)F)cc3)c(NC(=O)Cc3ccccc3)nc2c1` [Compound 246, N-(7-methoxy-3-(4-(trifluoromethyl)phenyl)imidazo[1,2-a]pyridin-2-yl)-2-phenylacetamide], the EC50 fell in the range of 0.5 to 3 µM.

For the compound `O=C(COc1ccc(Cl)cc1Cl)Nc1nc2ccc(F)cn2c1-c1ccc(OC(F)(F)F)cc1` [Compound 247, 2-(2,4-dichlorophenoxy)-N-(6-fluoro-3-(4-(trifluoromethoxy)phenyl)imidazo[1,2-a]pyridin-2-yl)acetamide], the EC50 is 3 to 10 µM.

As to `O=C(Nc1nc2ccc(F)cn2c1-c1ccc(OC(F)(F)F)cc1)C1CCOC1` (stereo not drawn) [Compound 248, N-(6-fluoro-3-(4-(trifluoromethoxy)phenyl)imidazo[1,2-a]pyridin-2-yl)tetrahydrofuran-3-carboxamide], the EC50 lay within 3 to 10 µM.

Regarding `CC(C)C(C)C(=O)Nc1nc2ccc(F)cn2c1-c1ccc(OC(F)(F)F)cc1` (stereo not drawn) [Compound 249, N-(6-fluoro-3-(4-(trifluoromethoxy)phenyl)imidazo[1,2-a]pyridin-2-yl)-2,3-dimethylbutanamide], the EC50 was less than 0.5 µM.

Consider `O=C(CCOc1ccc(F)cc1)Nc1nc2ccc(F)cn2c1-c1ccc(OC(F)(F)F)cc1` [Compound 250, N-(6-fluoro-3-(4-(trifluoromethoxy)phenyl)imidazo[1,2-a]pyridin-2-yl)-3-(4-fluorophenoxy)propanamide], for which the EC50 was 0.5 to 3 µM.

`O=C(CC1CCOCC1)Nc1nc2ccc(F)cn2c1-c1ccc(OC(F)(F)F)cc1` [Compound 251, N-(6-fluoro-3-(4-(trifluoromethoxy)phenyl)imidazo[1,2-a]pyridin-2-yl)-2-(tetrahydro-2H-pyran-4-yl)acetamide]: the EC50 lay within 0.5 to 3 µM.

Take `O=C(CC(F)(F)F)Nc1nc2ccc(F)cn2c1-c1ccc(OC(F)(F)F)cc1` [Compound 252, 3,3,3-trifluoro-N-(6-fluoro-3-(4-(trifluoromethoxy)phenyl)imidazo[1,2-a]pyridin-2-yl)propanamide]: the EC50 was less than 0.5 µM.

For the compound `CO[C@@H](C(=O)Nc1nc2ccc(F)cn2c1-c1ccc(OC(F)(F)F)cc1)c1ccccc1` [Compound 253, (R)—N-(6-fluoro-3-(4-(trifluoromethoxy)phenyl)imidazo[1,2-a]pyridin-2-yl)-2-methoxy-2-phenyl acetamide], the EC50 fell in the range of 3 to 10 µM.

On to `CO[C@H](C(=O)Nc1nc2ccc(F)cn2c1-c1ccc(OC(F)(F)F)cc1)c1ccccc1` [Compound 254, (S)—N-(6-fluoro-3-(4-(trifluoromethoxy)phenyl)imidazo[1,2-a]pyridin-2-yl)-2-methoxy-2-phenyl acetamide], for which the EC50 was 3 to 10 µM.

In the case of `Cc1cc(-c2c(NC(=O)CC(C)(C)C)nc3ccc(F)cn23)ccc1F` [Compound 255, N-(6-fluoro-3-(4-fluoro-3-methylphenyl)imidazo[1,2-a]pyridin-2-yl)-3,3-dimethylbutanamide], the EC50 was less than 0.5 µM.
